The results in this text go back to paper PMC6576746, “Rational discovery of dual-indication multi-target PDE/Kinase inhibitor for precision anti-cancer therapy using structural systems pharmacology” (PLoS Computational Biology, 2019).

Holding throughout (assay): biochemical
Common to all, as to set-up: DiscoverX KinomeScan competition binding assay across human kinases; per cent of control at 10 and 100 uM

For assay [1], the target named is BRSK1 (Homo sapiens, UniProt Q8TDC3). To be noted: competition binding, % of control; read-out: Percent Control (100 uM Levosimendan). In a few lines: (§1)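 Binding is expressed as %control, normalised between positive and negative control signals. The compound (levosimendan) was tested at 10 μM and 100 μM in the DiscoverX KinomeScan competition binding format against human kinases.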
BRSK1, sequence (Q8TDC3 whole entry): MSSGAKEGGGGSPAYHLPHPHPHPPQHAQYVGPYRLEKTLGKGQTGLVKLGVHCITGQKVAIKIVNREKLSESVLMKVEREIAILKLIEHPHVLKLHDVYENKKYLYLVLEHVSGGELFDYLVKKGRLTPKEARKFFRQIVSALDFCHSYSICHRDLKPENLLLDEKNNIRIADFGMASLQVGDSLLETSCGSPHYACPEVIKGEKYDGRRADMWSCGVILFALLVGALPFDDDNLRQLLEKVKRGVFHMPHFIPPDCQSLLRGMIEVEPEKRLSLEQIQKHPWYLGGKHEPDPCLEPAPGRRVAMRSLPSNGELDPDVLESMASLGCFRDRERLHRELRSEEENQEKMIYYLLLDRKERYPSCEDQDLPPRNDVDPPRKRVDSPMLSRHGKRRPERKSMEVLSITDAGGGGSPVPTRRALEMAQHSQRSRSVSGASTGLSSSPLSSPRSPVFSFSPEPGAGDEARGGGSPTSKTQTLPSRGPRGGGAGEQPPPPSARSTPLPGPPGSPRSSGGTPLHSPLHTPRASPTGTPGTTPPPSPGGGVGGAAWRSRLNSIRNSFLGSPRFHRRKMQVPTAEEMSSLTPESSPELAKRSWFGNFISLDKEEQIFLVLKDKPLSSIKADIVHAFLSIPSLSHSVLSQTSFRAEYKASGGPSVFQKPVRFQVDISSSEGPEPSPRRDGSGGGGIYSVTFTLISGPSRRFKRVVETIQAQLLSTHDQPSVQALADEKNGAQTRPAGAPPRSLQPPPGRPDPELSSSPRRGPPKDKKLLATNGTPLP

For assay [2], the target named is CAMK1D (Homo sapiens, UniProt Q8IU85). The settings on record: competition binding, % of control; read-out: Percent Control (100 uM Levosimendan). Summed up: as §1
CAMK1D, sequence (Q8IU85 whole entry): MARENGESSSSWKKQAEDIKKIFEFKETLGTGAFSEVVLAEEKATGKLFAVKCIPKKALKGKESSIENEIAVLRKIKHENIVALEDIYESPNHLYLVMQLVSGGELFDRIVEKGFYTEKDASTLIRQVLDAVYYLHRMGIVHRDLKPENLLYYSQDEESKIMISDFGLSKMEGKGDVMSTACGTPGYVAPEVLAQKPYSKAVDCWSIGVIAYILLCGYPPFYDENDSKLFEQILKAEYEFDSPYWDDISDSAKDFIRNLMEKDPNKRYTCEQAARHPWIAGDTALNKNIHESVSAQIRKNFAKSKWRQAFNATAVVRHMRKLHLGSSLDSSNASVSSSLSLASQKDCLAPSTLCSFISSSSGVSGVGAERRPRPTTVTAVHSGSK
For assay [3], the target named is EGFR (Homo sapiens, UniProt P00533). To be noted: competition binding, % of control. Summed up: as §1
EGFR, sequence (P00533 whole entry): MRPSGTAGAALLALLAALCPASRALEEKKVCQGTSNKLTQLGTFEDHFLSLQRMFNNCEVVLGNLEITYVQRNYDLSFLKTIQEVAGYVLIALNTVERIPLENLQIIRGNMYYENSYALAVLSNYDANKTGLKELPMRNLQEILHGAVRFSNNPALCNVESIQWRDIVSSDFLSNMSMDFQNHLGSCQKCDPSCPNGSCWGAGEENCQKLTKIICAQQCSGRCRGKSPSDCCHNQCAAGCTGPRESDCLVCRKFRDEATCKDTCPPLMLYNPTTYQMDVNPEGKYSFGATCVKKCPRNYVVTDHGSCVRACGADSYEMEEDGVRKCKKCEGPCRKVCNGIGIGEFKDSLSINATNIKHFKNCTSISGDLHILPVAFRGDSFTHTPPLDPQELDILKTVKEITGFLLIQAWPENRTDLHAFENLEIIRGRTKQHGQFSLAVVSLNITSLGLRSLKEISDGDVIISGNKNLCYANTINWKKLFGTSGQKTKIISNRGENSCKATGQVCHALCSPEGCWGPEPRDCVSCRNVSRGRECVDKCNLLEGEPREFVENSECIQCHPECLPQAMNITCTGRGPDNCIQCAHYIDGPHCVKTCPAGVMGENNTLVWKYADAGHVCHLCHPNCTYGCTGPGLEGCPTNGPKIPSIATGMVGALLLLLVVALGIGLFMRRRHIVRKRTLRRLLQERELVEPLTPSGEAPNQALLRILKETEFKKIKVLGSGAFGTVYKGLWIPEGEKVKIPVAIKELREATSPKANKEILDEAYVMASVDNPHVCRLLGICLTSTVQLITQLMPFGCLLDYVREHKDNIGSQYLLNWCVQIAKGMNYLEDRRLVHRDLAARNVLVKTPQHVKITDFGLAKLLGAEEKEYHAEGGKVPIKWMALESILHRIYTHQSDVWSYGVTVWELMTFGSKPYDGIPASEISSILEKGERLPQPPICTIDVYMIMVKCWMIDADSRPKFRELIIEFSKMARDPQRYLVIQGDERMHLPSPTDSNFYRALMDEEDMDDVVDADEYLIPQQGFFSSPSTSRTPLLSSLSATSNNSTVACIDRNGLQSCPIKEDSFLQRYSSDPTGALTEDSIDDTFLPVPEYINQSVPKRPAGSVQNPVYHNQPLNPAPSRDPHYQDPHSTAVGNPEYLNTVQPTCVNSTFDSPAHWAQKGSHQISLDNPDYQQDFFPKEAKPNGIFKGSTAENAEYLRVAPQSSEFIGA
Assay [4] concerns the target STK36 (Homo sapiens, UniProt Q9NRP7). To be noted: competition binding, % of control. In a few lines:
as §1

For assay [5], the target named is T1, JNK3 (Homo sapiens, UniProt P53779).
T1 construct: gene MAPK10
T1 sequence (P53779 whole entry): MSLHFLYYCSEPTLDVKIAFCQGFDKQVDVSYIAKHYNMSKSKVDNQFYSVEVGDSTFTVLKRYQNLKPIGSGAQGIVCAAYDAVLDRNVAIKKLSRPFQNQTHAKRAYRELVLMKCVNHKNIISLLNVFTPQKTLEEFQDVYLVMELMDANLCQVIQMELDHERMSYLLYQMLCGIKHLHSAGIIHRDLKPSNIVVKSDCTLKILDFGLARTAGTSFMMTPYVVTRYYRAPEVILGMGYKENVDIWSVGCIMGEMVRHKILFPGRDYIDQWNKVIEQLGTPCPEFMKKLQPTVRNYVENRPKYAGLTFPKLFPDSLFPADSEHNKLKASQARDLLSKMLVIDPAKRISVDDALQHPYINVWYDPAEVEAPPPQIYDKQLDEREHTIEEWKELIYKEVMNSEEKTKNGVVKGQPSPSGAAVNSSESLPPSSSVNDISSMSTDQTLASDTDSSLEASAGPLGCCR
To be noted: competition binding, % of control; read-out: Percent Control (100 uM Levosimendan). In a few lines:
as §1

The target of assay [6] is CDKL2 (Homo sapiens, UniProt Q92772). The settings on record: competition binding, % of control; read-out: Percent Control (100 uM Levosimendan). Summed up:
as §1

In assay [7] the target is STK16 (Homo sapiens, UniProt O75716). The settings on record: competition binding, % of control; read-out: Percent Control (100 uM Levosimendan). Summed up:
as §1

[8] abbreviates: read-out: Percent Control (10 uM Levosimendan).
Setting [9] is: read-out: Percent Control (100 uM Levosimendan).

STK36, sequence (Q9NRP7 whole entry): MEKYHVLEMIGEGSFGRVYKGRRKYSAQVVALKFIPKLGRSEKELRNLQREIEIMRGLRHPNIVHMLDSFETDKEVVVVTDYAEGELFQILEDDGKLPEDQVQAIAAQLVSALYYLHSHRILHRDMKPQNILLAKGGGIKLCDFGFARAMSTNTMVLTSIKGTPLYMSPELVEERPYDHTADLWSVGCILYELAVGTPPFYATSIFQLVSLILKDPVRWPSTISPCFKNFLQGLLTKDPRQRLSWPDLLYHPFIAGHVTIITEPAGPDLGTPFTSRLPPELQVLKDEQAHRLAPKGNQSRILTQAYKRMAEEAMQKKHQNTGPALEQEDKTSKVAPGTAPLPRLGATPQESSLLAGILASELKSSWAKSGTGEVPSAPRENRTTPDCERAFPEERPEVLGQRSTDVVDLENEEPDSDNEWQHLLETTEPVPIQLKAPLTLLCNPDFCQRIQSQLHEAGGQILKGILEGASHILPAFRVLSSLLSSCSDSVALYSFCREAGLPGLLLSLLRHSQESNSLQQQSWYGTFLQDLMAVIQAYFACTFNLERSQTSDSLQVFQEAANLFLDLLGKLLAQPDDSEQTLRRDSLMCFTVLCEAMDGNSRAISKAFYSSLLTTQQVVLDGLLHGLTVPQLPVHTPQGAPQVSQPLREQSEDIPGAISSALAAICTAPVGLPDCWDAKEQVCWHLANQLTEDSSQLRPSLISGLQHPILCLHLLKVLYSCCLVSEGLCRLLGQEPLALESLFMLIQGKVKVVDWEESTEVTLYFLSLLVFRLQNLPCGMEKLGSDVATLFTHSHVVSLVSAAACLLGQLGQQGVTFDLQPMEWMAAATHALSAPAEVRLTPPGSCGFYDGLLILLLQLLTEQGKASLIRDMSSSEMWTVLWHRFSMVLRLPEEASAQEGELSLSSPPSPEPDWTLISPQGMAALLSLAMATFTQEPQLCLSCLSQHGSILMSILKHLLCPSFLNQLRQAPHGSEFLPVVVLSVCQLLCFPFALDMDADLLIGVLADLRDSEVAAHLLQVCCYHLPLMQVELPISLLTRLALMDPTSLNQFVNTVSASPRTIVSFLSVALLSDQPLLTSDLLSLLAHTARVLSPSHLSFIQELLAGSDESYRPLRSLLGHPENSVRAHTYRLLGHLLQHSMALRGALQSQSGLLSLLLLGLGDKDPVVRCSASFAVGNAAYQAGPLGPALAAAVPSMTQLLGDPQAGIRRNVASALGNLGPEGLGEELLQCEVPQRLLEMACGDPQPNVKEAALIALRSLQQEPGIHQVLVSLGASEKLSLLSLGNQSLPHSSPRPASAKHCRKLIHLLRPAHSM
STK16, sequence (O75716 whole entry): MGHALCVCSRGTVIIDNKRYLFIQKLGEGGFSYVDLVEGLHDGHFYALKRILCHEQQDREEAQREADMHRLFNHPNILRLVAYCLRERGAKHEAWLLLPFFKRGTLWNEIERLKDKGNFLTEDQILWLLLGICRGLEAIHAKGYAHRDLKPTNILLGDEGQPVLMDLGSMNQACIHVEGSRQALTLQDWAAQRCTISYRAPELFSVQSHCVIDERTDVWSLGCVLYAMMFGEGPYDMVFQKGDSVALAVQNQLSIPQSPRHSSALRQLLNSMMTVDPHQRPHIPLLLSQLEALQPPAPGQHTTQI
CDKL2, sequence (Q92772 whole entry): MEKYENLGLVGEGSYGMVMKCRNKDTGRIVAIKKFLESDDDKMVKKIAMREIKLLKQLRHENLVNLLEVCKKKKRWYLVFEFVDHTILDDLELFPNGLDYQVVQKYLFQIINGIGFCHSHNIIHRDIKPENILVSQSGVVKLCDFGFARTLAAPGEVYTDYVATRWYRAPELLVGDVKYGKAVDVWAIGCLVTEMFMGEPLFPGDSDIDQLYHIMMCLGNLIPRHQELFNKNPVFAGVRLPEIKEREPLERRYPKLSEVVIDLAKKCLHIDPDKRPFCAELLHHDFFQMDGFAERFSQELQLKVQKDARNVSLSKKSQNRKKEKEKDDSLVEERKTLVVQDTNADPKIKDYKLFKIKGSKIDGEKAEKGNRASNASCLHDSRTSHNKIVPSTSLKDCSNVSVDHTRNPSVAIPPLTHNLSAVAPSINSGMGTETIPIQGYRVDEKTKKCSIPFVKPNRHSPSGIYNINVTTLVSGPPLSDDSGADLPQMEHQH

On to `C[C@@H]1CC(=O)NN=C1c1ccc(NN=C(C#N)C#N)cc1` [levosimendan], for which the remaining binding at 100 µM in assay [1] turned out to be 100%; in assay [2], 57%; in assay [3] (setting [9]) it was 28%; in assay [4] (setting [9]) it was 50%; in assay [5], 99%; in assay [6] it was 100%. Also, in assay [7], the remaining binding at 100 µM came out at 80%. The remaining binding at 10 µM was 78% in assay [3] (setting [8]) and 98% in assay [4] (setting [8]).
